Measured values taken from patent US20090170906A1, “HCV INHIBITORS” (priority 2004, published 2009).

Test system: HCV genotype 1b strain Con1 replicon (ET replicon line, Huh7 cells)
Experiment: ET replicon luciferase assay (HCV activity)
Type: cell-based
Settings: Hepatitis C virus, Huh-7, Huh7 cells with HCV genotype 1b Con1 luciferase replicon, 72 hours incubation
Procedure: Compounds of the current invention are believed useful in the treatment and/or prophylaxis of conditions and diseases associated with HcV infection. Activity mediated through HCV was determined using an ET replicon line.
The Materials used include a Medium comprised of DMEM (1× liquid, high glucose); Invitrogen cat# 11965-092; 100× Penicillin/Streptomycin solution (10,000 Units/mL); Invitrogen cat# 15140-122; 100× Non-essential amino acid solution (10 mM); Invitrogen cat# 11140-050; Fetal bovine serum; JRH Biosciences cat# 12107-500M; Geneticin (50 mg/mL); Invitrogen cat# 10131-035
The Luciferase assay reagents include Steady-Glo Luciferase assay system, cat# E2550 (Promega)
The ET replicon line (see Lohmann et al. (1999), Replication of subgenomic hepatitis C virus RNAs in a hepatoma cell line. Science 285: 110-113; Krieger et al. (2001), Enhancement of hepatitis C virus RNA replication by cell culture-adaptive mutations. J. Virol. 75: 46144624; and Vrolijk et al. (2003), A replicon-based bioassay for the measurement of interferons in patients with chronic hepatitis C. J. Virol. Meth. 110: 201-209, each herein incorporated by reference with regard to the ET replicon line), includes Huh7 cells stably transfected with HCV genotype 1b strain Con1 replicon. This replicon expresses the firefly luciferase, has the coding region for ubiquitin inserted upstream of the neomycin gene, and carries three cell culture-adaptive mutations that enhance RNA replication cooperatively (E1202G, T1280I, and S2197P). The ET cell line was obtained under licence from: R^eBLikon GmbH, Nach dem alten Schloss 22, 55239 Gau-Odemheim, Germany.
Cells are maintained at 37° C., 5% CO2, in DMEM with 10% FCS, 1× penicillin/streptomycin, 1× non-essential amino acids, 0.5 mg/mL Geneticin. For passage, cells are washed once with PBS, and incubated at 37° C. with sufficient trypsin (0.05%)/versene to cover the monolayer. Once detached from the flask, cells are mixed with several mLs of DMEM+10% FBS to inactivate the trypsin, then diluted appropriately (usually 1 in 5 or 1 in 10) with sufficient medium to pass to a new flask. For a T225 flask, 40-50 mLs total volume of cells+medium is typically used. To prevent the density dependent drop in replicon RNA, the ET cell line is maintained at sub-confluent (60-80%) levels.
Compounds are diluted in DMSO across the first 10 wells of a Costar V-bottom 96-well plate using a Biomek 2000 Workstation (Beckman-Coulter), with 0.5 log10 dilution intervals. DMSO only is added to the last two columns of the plate. The top concentration of drug in this master plate is typically 2.5 mM. A 1/5 dilution of the compounds is made by adding DMEM+10% FBS with a multichannel pipettor, giving a top concentration of 500 μM. 5 μL of diluted compounds is transferred into black Costar flat bottom 96-well daughter plates using a RapidPlate workstation (Zymark).
Cells are grown to approximately 80% confluency and trypsinised as described above. Cells are counted in a Levy Hemocytometer and diluted to 20,000 cells/ml in DMEM containing 10% FBS, 1× penicillin/streptomycin, 1×NEAAs. (Note: Geneticin is omitted for the assay).
245 μL cell suspension is added to the first 11 columns of the daughter plates prepared as above using a Multidrop dispenser (Titertek). Thus, 5,000 cells are added per well, and the final top concentration of each compound is 10 μM. The twelfth column of each plate is used to generate background readings for the assay. Plates are incubated at 37° C., 5% CO2 for 72 hours.
Steady-Glo reagent is prepared according to the manufacturer's instructions, by mixing the Steady-Glo Buffer and Steady-Glo substrate Buffer at room temperature. Medium is removed from the 96-well plates containing ET cells treated with compound using a multi-channel aspirator. 100 μl of Steady-Glo reagent is added to each well using a multichannel pipettor or Multidrop dispensor. […]

Row | Structure (SMILES) | IC50
1 | O=C(NC1CCCc2c1[nH]c1ccc(Br)cc21)c1ccccc1 (stereo not drawn) [Example 14A, N-(6-Bromo-2,3,4,9-tetrahydro-1H-carbazol-1-yl)benzamide] | 17 nM
2 | O=C(NC1CCCc2c1[nH]c1ccc(Br)cc21)c1ccccc1F (stereo not drawn) [Example 29, N-(6-Bromo-2,3,4,9-tetrahydro-1H-carbazol-1-yl)-2-fluorobenzamide] | 6 nM
3 | O=C(N[C@@H]1CCCc2c1[nH]c1ccc(Cl)cc21)c1ccccc1 [Example 36B, N-[(1R)-6-chloro-2,3,4,9-tetrahydro-1H-carbazol-1-yl]benzamide] | < 30 nM
4 | O=C(NC1CCCc2c1[nH]c1ccc(Br)cc21)c1ccccn1 (stereo not drawn) [Example 38, N-(6-Bromo-2,3,4,9-tetrahydro-1H-carbazol-1-yl)pyridine-2-carboxamide] | 7 nM
5 | O=C(N[C@@H]1CCCc2c1[nH]c1ccc(Cl)cc21)c1ccccn1 [Example 45B, N-[(1R)-6-chloro-2,3,4,9-tetrahydro-1H-carbazol-1-yl]pyridine-2-carboxamide] | 6 nM
6 | O=C(N[C@@H]1CCCc2c1[nH]c1ccc(Cl)cc21)c1ccccc1F [Example 46B, N-[(1R)-6-chloro-2,3,4,9-tetrahydro-1H-carbazol-1-yl]-2-fluorobenzamide] | 16 nM
